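Where inhibition never reached the appropriate level, the endpoint shown equals the highest concentration tested. Otherwise, values were interpolated linearly from a five-concentration, 48-hour dose response in 96-well plates. GI50 marks 50% less growth.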 Active and inactive are the calls of the source. Rule as the data show it: active = GI50 up to about 1.1 µM and inactive = higher.
Tests used:
Test in all cases: DTP human tumour cell line panel, 48 h
[1] = system: UO-31
[2] = system: 786-0
[3] = system: SK-MEL-2
[4] = system: SNB-19
[5] = system: PC-3
[6] = system: U-251
[7] = system: NCI-H522
[8] = system: NCI/ADR-RES
[9] = system: NCI-H460
[10] = system: MDA-MB-231
[11] = system: IGROV-1
[12] = system: A549
[13] = system: NCI-H23
[14] = system: CCRF-CEM
[15] = system: MCF7
[16] = system: HOP-92
[17] = system: MDA-MB-435
[18] = system: HL-60
[19] = system: RPMI-8226
[20] = system: A498

Structure (SMILES) | GI50 [1] | GI50 [2] | GI50 [3] | GI50 [4] | GI50 [5] | GI50 [6] | GI50 [7] | GI50 [8] | GI50 [9] | GI50 [10] | GI50 [11] | GI50 [12] | GI50 [13] | GI50 [14] | GI50 [15] | GI50 [16] | GI50 [17] | GI50 [18] | GI50 [19] | GI50 [20]
COc1ccc(N[C@H](C[S+]([O-])c2ccc(C)cc2)C(F)(F)F)cc1 (stereo not given in full) | > 100 µM (inactive) | > 100 µM (inactive) | > 100 µM (inactive) | > 100 µM (inactive) | > 100 µM (inactive) | > 100 µM (inactive) | > 100 µM (inactive) | > 100 µM (inactive) | > 100 µM (inactive) | > 100 µM (inactive) | > 100 µM (inactive) | > 100 µM (inactive) | > 100 µM (inactive) | > 100 µM (inactive) | > 100 µM (inactive) | > 100 µM (inactive) | > 100 µM (inactive) | > 100 µM (inactive) | – | –
NC(=O)N/N=C(\Cc1cc(=O)oc2cc(O)ccc12)C(=O)Nc1ccccc1C(N)=O | > 100 µM (inactive) | > 100 µM (inactive) | > 100 µM (inactive) | > 100 µM (inactive) | > 100 µM (inactive) | > 100 µM (inactive) | > 100 µM (inactive) | > 100 µM (inactive) | > 100 µM (inactive) | > 100 µM (inactive) | > 100 µM (inactive) | > 100 µM (inactive) | > 100 µM (inactive) | > 100 µM (inactive) | > 100 µM (inactive) | > 100 µM (inactive) | > 100 µM (inactive) | > 100 µM (inactive) | – | –
CCOC(=O)[C@@H]1ON2O[C@H](OC3CCCC3(c3ccccc3)c3ccccc3)C[C@H]3OC(=O)[C@@H]1C32 (stereo not given in full) | 37.6 µM (inactive) | 78 µM (inactive) | – | – | – | 52.4 µM (inactive) | 36.4 µM (inactive) | 31.8 µM (inactive) | 34 µM (inactive) | 36.6 µM (inactive) | 33.7 µM (inactive) | 27.8 µM (inactive) | 27 µM (inactive) | 26.3 µM (inactive) | 34.4 µM (inactive) | 95.7 µM (inactive) | 30.1 µM (inactive) | 22.2 µM (inactive) | 35.6 µM (inactive) | 35.2 µM (inactive)
c1ccc([P+](CCNCCNCC[P+](c2ccccc2)(c2ccccc2)c2ccccc2)(c2ccccc2)c2ccccc2)cc1 | > 100 µM (inactive) | > 100 µM (inactive) | > 100 µM (inactive) | > 100 µM (inactive) | – | > 100 µM (inactive) | – | > 100 µM (inactive) | > 100 µM (inactive) | > 100 µM (inactive) | > 100 µM (inactive) | > 100 µM (inactive) | > 100 µM (inactive) | – | > 100 µM (inactive) | – | > 100 µM (inactive) | – | > 100 µM (inactive) | > 100 µM (inactive)
CCC/C(=N\NC(=S)N1CCN(c2ccccn2)CC1)c1ccccn1 | 0.0702 µM (active) | 0.0251 µM (active) | 0.115 µM (active) | 0.0142 µM (active) | 0.0152 µM (active) | 0.00312 µM (active) | 0.0413 µM (active) | – | 0.0362 µM (active) | 0.0311 µM (active) | 0.00234 µM (active) | 0.118 µM (active) | 0.00881 µM (active) | – | 0.00457 µM (active) | 0.233 µM (active) | 0.133 µM (active) | < 0.001 µM (active) | 0.00115 µM (active) | 0.541 µM (active)
COc1ccc(C2=C(Cl)C(=O)N(c3ccc(OC)cc3OC)C(=O)C2(Cl)Cl)cc1 | 14.8 µM (inactive) | 15.6 µM (inactive) | 20.9 µM (inactive) | 56.6 µM (inactive) | 13.2 µM (inactive) | 16.6 µM (inactive) | 14.3 µM (inactive) | 14.5 µM (inactive) | 45.2 µM (inactive) | 7.62 µM (inactive) | 18.5 µM (inactive) | > 100 µM (inactive) | 15.4 µM (inactive) | – | 21 µM (inactive) | 9.77 µM (inactive) | 16.9 µM (inactive) | 25.2 µM (inactive) | – | –
OC(c1ccccc1)c1c(-c2ccccc2)oc(-c2ccccc2)c1C(O)c1ccccc1 (stereo not given) | 10.6 µM (inactive) | 9.06 µM (inactive) | 14.2 µM (inactive) | 14.8 µM (inactive) | 9.33 µM (inactive) | 14 µM (inactive) | 3.15 µM (inactive) | 9.02 µM (inactive) | 8.15 µM (inactive) | – | 14 µM (inactive) | 5.73 µM (inactive) | 9.06 µM (inactive) | 3.73 µM (inactive) | 4.37 µM (inactive) | 13.4 µM (inactive) | 8.04 µM (inactive) | 3.26 µM (inactive) | 2.72 µM (inactive) | 16.8 µM (inactive)
C=C(C)[C@@]1(OC(=O)c2cc([N+](=O)[O-])cc([N+](=O)[O-])c2)C[C@@H]2CCCC[C@@H]21 | 16.4 µM (inactive) | > 100 µM (inactive) | 58.3 µM (inactive) | > 100 µM (inactive) | > 100 µM (inactive) | > 100 µM (inactive) | > 100 µM (inactive) | > 100 µM (inactive) | 46.9 µM (inactive) | > 100 µM (inactive) | > 100 µM (inactive) | 39.4 µM (inactive) | > 100 µM (inactive) | > 100 µM (inactive) | 64 µM (inactive) | – | – | 95.1 µM (inactive) | 45.4 µM (inactive) | –
C[C@H](N)C(=O)Nc1ccc(-c2nc3ccccc3s2)cc1Cl | 10.7 µM (inactive) | 12.5 µM (inactive) | 15.7 µM (inactive) | 16.3 µM (inactive) | 13.8 µM (inactive) | 14.6 µM (inactive) | 20.5 µM (inactive) | 30.8 µM (inactive) | 0.916 µM (active) | – | 0.165 µM (active) | 13.3 µM (inactive) | 16.5 µM (inactive) | 12 µM (inactive) | – | 33.1 µM (inactive) | 13.6 µM (inactive) | – | – | –
O=C(/C=C/c1ccc(OCCCCCCCCCCOc2ccc(/C=C/C(=O)c3ccc(Cl)cc3)cc2)cc1)c1ccc(Cl)cc1 | > 100 µM (inactive) | > 100 µM (inactive) | > 100 µM (inactive) | > 100 µM (inactive) | – | > 100 µM (inactive) | > 100 µM (inactive) | – | > 100 µM (inactive) | – | > 100 µM (inactive) | > 100 µM (inactive) | > 100 µM (inactive) | > 100 µM (inactive) | – | > 100 µM (inactive) | – | > 100 µM (inactive) | > 100 µM (inactive) | > 100 µM (inactive)
Nc1ncnc2c1ncn2C1CCC(COS(N)(=O)=O)C1 (stereo not given) | > 100 µM (inactive) | > 100 µM (inactive) | > 100 µM (inactive) | > 100 µM (inactive) | > 100 µM (inactive) | > 100 µM (inactive) | – | > 100 µM (inactive) | > 100 µM (inactive) | > 100 µM (inactive) | > 100 µM (inactive) | > 100 µM (inactive) | > 100 µM (inactive) | > 100 µM (inactive) | 58.7 µM (inactive) | > 100 µM (inactive) | > 100 µM (inactive) | 31.1 µM (inactive) | > 100 µM (inactive) | –
CC1(C)C(C#N)=[N+]([O-])C(C)(C)N1O | > 100 µM (inactive) | > 100 µM (inactive) | > 100 µM (inactive) | > 100 µM (inactive) | > 100 µM (inactive) | > 100 µM (inactive) | – | > 100 µM (inactive) | > 100 µM (inactive) | > 100 µM (inactive) | > 100 µM (inactive) | > 100 µM (inactive) | > 100 µM (inactive) | 33.5 µM (inactive) | 79.4 µM (inactive) | > 100 µM (inactive) | 37.7 µM (inactive) | 26.7 µM (inactive) | > 100 µM (inactive) | –
O=C(c1ccc(Cl)cc1)C1OC12C(=O)Nc1ccccc12 (stereo not given) | 15.8 µM (inactive) | 11.7 µM (inactive) | 7.6 µM (inactive) | 40.9 µM (inactive) | 25.9 µM (inactive) | 17.3 µM (inactive) | 1.91 µM (inactive) | – | 18.5 µM (inactive) | 21 µM (inactive) | 19.8 µM (inactive) | 23.9 µM (inactive) | 15.5 µM (inactive) | 0.388 µM (active) | – | 10.8 µM (inactive) | 16.9 µM (inactive) | 0.349 µM (active) | 2.4 µM (inactive) | 19.7 µM (inactive)
CC(=O)Oc1ccc2c(c1)CC[C@@H]1C2[C@@H](O[N+](=O)[O-])C[C@@]2(C)C1CC[C@@H]2O[N+](=O)[O-] (stereo not given in full) | 12.3 µM (inactive) | 14.5 µM (inactive) | 15.4 µM (inactive) | 16.9 µM (inactive) | 10.5 µM (inactive) | 14 µM (inactive) | 11.1 µM (inactive) | 14.3 µM (inactive) | 12.8 µM (inactive) | – | 15.1 µM (inactive) | 13.2 µM (inactive) | 12.7 µM (inactive) | 9.1 µM (inactive) | 9.42 µM (inactive) | 10.1 µM (inactive) | 15.5 µM (inactive) | 16.4 µM (inactive) | 7.41 µM (inactive) | 18.6 µM (inactive)
COC(NC(=O)Nc1ccccc1C)(C(F)(F)F)C(F)(F)F | > 100 µM (inactive) | > 100 µM (inactive) | – | 44.4 µM (inactive) | 56.4 µM (inactive) | 34.5 µM (inactive) | 30.4 µM (inactive) | > 100 µM (inactive) | > 100 µM (inactive) | – | > 100 µM (inactive) | > 100 µM (inactive) | 81.5 µM (inactive) | 40.7 µM (inactive) | > 100 µM (inactive) | > 100 µM (inactive) | > 100 µM (inactive) | > 100 µM (inactive) | > 100 µM (inactive) | > 100 µM (inactive)

Source: ChEMBL document CHEMBL1201862, “PubChem BioAssay data set” (2004)
